The record followed here is patent US20210236476A1, “METHODS OF TREATING CANCER WITH SMALL MOLECULE PD-L1 INHIBITORS” (CHEMOCENTRYX, INC., priority 2018, published 2021).

A value given as a limit tells only on which side of the number the result lay.

In the assay the target is T1, human PD-L1 / human PD-1 interaction (Homo sapiens, UniProt Q9NZQ7).
T1 construct: purchased R&D (PD-L1); ACRO Biosystems (PD-1, biotin)
Description: ELISA of PD-1/PD-L1 interaction. Type of assay: binding. The essentials:
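Plates coated with 1 μg/mL human PD-L1 and blocked with BSA; serially diluted (1:5) compounds plus biotinylated human PD-1 (0.3 μg/mL) incubated 1 h at 37° C. Bound PD-1 detected with streptavidin-HRP/TMB, absorbance at 450 nm.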

T1 sequence (Q9NZQ7 19-239 limits assumed): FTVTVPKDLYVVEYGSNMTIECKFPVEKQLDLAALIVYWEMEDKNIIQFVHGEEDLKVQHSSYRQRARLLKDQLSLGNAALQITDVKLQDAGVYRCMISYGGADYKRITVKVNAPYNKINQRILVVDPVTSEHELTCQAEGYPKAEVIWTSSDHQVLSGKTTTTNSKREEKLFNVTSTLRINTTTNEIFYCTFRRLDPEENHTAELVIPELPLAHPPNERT

Turning to `N#Cc1cncc(COc2cc(O[C@H]3CCc4c(-c5cccc(OCCCN6CC7(C6)CC(F)(F)C7)c5Cl)cccc43)c(Cl)cc2CN[C@H]2CCC[C@H]2O)c1`, the IC50 is < 5 nM.

For `N#Cc1cncc(COc2cc(O[C@H]3CCc4c(-c5cccc(OCCCN6CC(F)C6)c5Cl)cccc43)c(Cl)cc2CN[C@@H]2CCCC[C@@H]2O)c1`, the half-inhibitory concentration (IC50) is < 5 nM.

With `Cc1c(OCCCN2CCC(F)CC2)cccc1-c1cccc2c1CC[C@@H]2Oc1cc(OCc2cc(C#N)cc(C#N)c2)c(CNC2CCNC(=O)C2)cc1Cl` (stereo partly drawn), the IC50 is < 5 nM.

`C[C@@](CO)(NCc1cc(Cl)c(O[C@H]2CCc3c(-c4cccc(OCCCN5CCC(O)CC5)c4Cl)cccc32)cc1OCc1cncc(C#N)c1)C(=O)O`: the IC50 was < 5 nM.

Consider `C[C@@H](O)[C@H](NCc1cc(Cl)c(O[C@H]2CCc3c(-c4cccc(OCCCN5CC(O)C5)c4Cl)cccc32)cc1OCc1cncc(C#N)c1)C(N)=O`, for which the IC50 was < 5 nM.

In the case of `CCOc1cc(O[C@H]2CCc3c(-c4cccc(OCCCN5CC[C@@H](O)C5)c4C)cccc32)c(Cl)cc1CNC(CO)CO`, the IC50 is < 5 nM.

With `C[C@@H](O)[C@H](NCc1cc(Cl)c(O[C@H]2CCc3c(-c4cccc(OCCCN5CCCCC5)c4Cl)cccc32)cc1OCc1cncc(C#N)c1)C(=O)NS(C)(=O)=O`, the IC50 was < 5 nM.

In turn, `CCOc1cc(O[C@H]2CCc3c(-c4cccc(OCCCN5CCC5(C)C)c4C)cccc32)c(Cl)cc1CN1CC[C@H](C(=O)O)C1` returned an IC50 of 5 to 500 nM.

As to `N#Cc1cncc(COc2cc(O[C@H]3CCc4c(-c5cccc(OCCCN6CC7(C6)CC(F)(F)C7)c5Cl)cccc43)c(Cl)cc2CN[C@@H]2CCCC[C@@H]2O)c1`, the IC50 is < 5 nM.

Regarding `Cc1c(OCCCN2CCC[C@H]2CO)cccc1-c1cccc2c1CC[C@@H]2Oc1cc(OCc2cncc(C#N)c2)c(CN[C@H](C(=O)O)[C@@H](C)O)cc1Cl`, the IC50 is < 5 nM.

As for `Cc1c(OCCCN2CCC(O)CC2)cccc1-c1cccc2c1CC[C@@H]2Oc1cc(OCc2cncc(C#N)c2)c(CN2CC[C@@H](O)C2)cc1Cl`, the IC50 was < 5 nM.

In the case of `N#Cc1cncc(COc2cc(O[C@H]3CCc4c(-c5cccc(OCCCN6CCCCC6)c5Cl)cccc43)c(Cl)cc2CNC[C@@H]2CCC(=O)N2)c1`, the IC50 was < 5 nM.

Consider `Cc1c(OCCCN2CCC(F)CC2)cccc1-c1cccc2c1CC[C@@H]2Oc1cc(OCc2cc(C#N)cc(C#N)c2)c(CNC[C@@H]2CCC(=O)N2)cc1Cl`, for which the IC50 was < 5 nM.

As for `CC(=O)OC1CCN(CCCOc2cccc(-c3cccc4c3CC[C@@H]4Oc3cc(OCc4cncc(C#N)c4)c(CN[C@@H]4CCCC[C@@H]4O)cc3Cl)c2Cl)CC1`, the IC50 is < 5 nM.

Regarding `Cc1c(OCCCN2CCC(O)CC2)cccc1-c1cccc2c1CC[C@@H]2Oc1cc(OCc2cncc(C#N)c2)c(CN[C@@H](CNC(=N)N)C(=O)O)cc1Cl`, the IC50 is < 5 nM.

As for `Cc1c(OCCCN2CC[C@@H](O)C2)cccc1-c1cccc2c1CC[C@@H]2Oc1cc(OCc2cncc(C#N)c2)c(CN[C@H](C(=O)O)[C@@H](C)O)cc1Cl`, the IC50 was < 5 nM.

Turning to `Cc1c(OCCCN2CCC2(C)C)cccc1-c1cccc2c1CC[C@@H]2Oc1cc(OCc2cc(C#N)cc(C#N)c2)c(CN[C@H]2CCC(=O)NC2)cc1Cl`, the IC50 is < 5 nM.

On to `N#Cc1cncc(COc2cc(O[C@H]3CCc4c(-c5cccc(OCCCN6CC(O)C6)c5Cl)cccc43)c(Cl)cc2CNCC(=O)O)c1`, for which the IC50 is < 5 nM.

For `CC(C)N1CCC(COc2cccc(-c3cccc4c3CC[C@@H]4Oc3cc(OCc4cncc(C#N)c4)c(CN[C@H]4CCC(=O)NC4)cc3Cl)c2Cl)C1` (stereo partly drawn), the IC50 is < 5 nM.

For `Cc1c(OCCCN2CCC(C)(O)CC2)cccc1-c1cccc2c1CC[C@@H]2Oc1cc(OCc2cc(C#N)cc(C#N)c2)c(CNC[C@@H]2CCC(=O)N2)cc1Cl`, the IC50 is < 5 nM.

`Cc1c(OCCCN2CCC(F)CC2)cccc1-c1cccc2c1CC[C@@H]2Oc1cc(OCc2cc(C#N)cc(C#N)c2)c(CN[C@H]2CCC[C@H]2O)cc1Cl`: the IC50 was < 5 nM.

With `C[C@@H](O)[C@H](NCc1cc(Cl)c(O[C@H]2CCc3c(-c4cccc(OCCCN5CCC(O)CC5)c4Cl)cccc32)cc1OCc1cncc(C#N)c1)C(=O)O`, the IC50 was < 5 nM.

Turning to `C[C@@](CO)(NCc1cc(Cl)c(O[C@H]2CCc3c(-c4cccc(OCCCN5CCC5)c4Cl)cccc32)cc1OCc1cncc(C#N)c1)C(=O)O`, the IC50 was < 5 nM.

Regarding `Cc1c(OCCCN2CCC(O)CC2)cccc1-c1cccc2c1CC[C@@H]2Oc1cc(OCc2cncc(C#N)c2)c(CN2CC[C@H](O)C2)cc1Cl`, the IC50 was < 5 nM.

As to `Cc1c(OCCCN2CCC(C)(F)CC2)cccc1-c1cccc2c1CC[C@@H]2Oc1cc(OCc2cncc(C#N)c2)c(CNC[C@@H]2CCC(=O)N2)cc1Cl`, the IC50 is < 5 nM.

As to `C[C@@H](O)[C@H](NCc1cc(Cl)c(O[C@H]2CCc3c(-c4cccc(OCCCN5CCC(O)CC5)c4F)cccc32)cc1OCc1cncc(C#N)c1)C(=O)O`, the IC50 was < 5 nM.

In the case of `N#Cc1cncc(COc2cc(O[C@H]3CCc4c(-c5cccc(OCCCN6CC7(CC(O)C7)C6)c5Cl)cccc43)c(Cl)cc2CN[C@H]2CCC[C@@H]2O)c1`, the IC50 is < 5 nM.

For the compound `CCOc1cc(O[C@H]2CCc3c(-c4cccc(OCCCN5CC(O)C5)c4Cl)cccc32)c(Cl)cc1CN[C@@](C)(CO)C(=O)O`, the IC50 was < 5 nM.

In the case of `N#Cc1cncc(COc2cc(O[C@H]3CCc4c(-c5cccc(OCCCN6CC7(CC(O)C7)C6)c5Cl)cccc43)c(Cl)cc2CN[C@@H]2CCCC[C@@H]2O)c1`, the IC50 is < 5 nM.

Consider `N#Cc1cncc(COc2cc(O[C@H]3CCc4c(-c5cccc(OCCCN6CC7(C6)CC(F)(F)C7)c5Cl)cccc43)c(Cl)cc2CN[C@@H]2CCC[C@H]2O)c1`, for which the IC50 was < 5 nM.

In the case of `Cc1c(OCCCN2CC[C@H](F)C2)cccc1-c1cccc2c1CC[C@@H]2Oc1cc(OCc2cncc(C#N)c2)c(CN[C@@H]2CCCC[C@@H]2O)cc1Cl`, the IC50 was < 5 nM.

Consider `CCOc1cc(O[C@H]2CCc3c(-c4cccc(OCCCN5[C@H](C)CC[C@H]5C)c4C)cccc32)c(Cl)cc1CNC[C@@H]1CCC(=O)N1`, for which the IC50 was < 5 nM.

Turning to `Cc1c(OCCCN2CCC(C)CC2)cccc1-c1cccc2c1CC[C@@H]2Oc1cc(OCc2cc(C#N)cc(C#N)c2)c(CNC[C@H]2CCC(=O)N2)cc1Cl`, the IC50 is < 5 nM.

For the compound `Cc1c(OCCCN2CCC(O)CC2)cccc1-c1cccc2c1CC[C@@H]2Oc1cc(OCc2cncc(C#N)c2)c(CN2CC(C(=O)O)C2)cc1Cl`, the IC50 is < 5 nM.

Turning to `CCOc1cc(O[C@H]2CCc3c(-c4cccc(OCCCN5CC(O)C5)c4C)cccc32)c(Cl)cc1CN[C@@H](CO)C(=O)O`, the IC50 is < 5 nM.

For the compound `N#Cc1cncc(COc2cc(O[C@H]3CCc4c(-c5cccc(OCCCN6CC7(CCC7)C6)c5Cl)cccc43)c(Cl)cc2CN[C@@H]2CCCC[C@@H]2O)c1`, the IC50 is < 5 nM.

`N#Cc1cncc(COc2cc(O[C@H]3CCc4c(-c5cccc(OCCCN6CCC(F)CC6)c5Cl)cccc43)c(Cl)cc2CN[C@H]2CCC[C@@H]2O)c1`: the IC50 was < 5 nM.

Turning to `N#Cc1cncc(COc2cc(O[C@H]3CCc4c(-c5cccc(OCCCN6CC7(CC(F)C7)C6)c5Cl)cccc43)c(Cl)cc2CNC[C@@H]2CCC(=O)N2)c1`, the IC50 is < 5 nM.

In the case of `Cc1c(OCCCN2[C@H](C)CCC[C@@H]2C)cccc1-c1cccc2c1CC[C@@H]2Oc1cc(OCc2cc(C#N)cc(C#N)c2)c(CN[C@H]2CCC(=O)NC2)cc1Cl`, the IC50 lay within 5 to 500 nM.

Turning to `Cc1c(OCCCN2CCC(O)CC2)cccc1-c1cccc2c1CC[C@@H]2Oc1cc(OCc2cncc(C#N)c2)c(CN(C)[C@H](C(=O)O)[C@@H](C)O)cc1Cl`, the IC50 was < 5 nM.

For `Cc1c(OCCCN2CC(C)(O)C2)cccc1-c1cccc2c1CC[C@@H]2Oc1cc(OCc2cncc(C#N)c2)c(CNCC2CCC(=O)N2)cc1Cl` (stereo partly drawn), the IC50 was < 5 nM.

`N#Cc1cncc(COc2cc(O[C@H]3CCc4c(-c5cccc(OCCCN6CCC(F)CC6)c5Cl)cccc43)c(Cl)cc2CN[C@H]2CCOC[C@@H]2O)c1` [drawing 198]: the IC50 was < 5 nM.

Turning to `N#Cc1cc(C#N)cc(COc2cc(O[C@@H]3c4cccc(-c5cccc(OCCCN6CC(O)C6)c5Cl)c4C[C@@H]3F)c(Cl)cc2CNC[C@H]2CCC(=O)N2)c1`, the IC50 is < 5 nM.

Turning to `N#Cc1cncc(COc2cc(O[C@H]3CCc4c(-c5cccc(OCCCN6CCC(F)CC6)c5Cl)cccc43)c(Cl)cc2CN[C@H]2CCOC[C@H]2O)c1`, the IC50 was < 5 nM.

On to `Cc1c(OCCCN2CC3(CC(F)C3)C2)cccc1-c1cccc2c1CC[C@@H]2Oc1cc(OCc2cc(C#N)cc(C#N)c2)c(CN[C@H]2CCC(=O)NC2)cc1Cl`, for which the IC50 was < 5 nM.

Take `Cc1c(OCCCN2CCC(F)CC2)cccc1-c1cccc2c1CC[C@@H]2Oc1cc(OCc2cc(C#N)cc(C#N)c2)c(CN[C@@H]2CCC[C@H]2O)cc1Cl`: the IC50 is < 5 nM.

For `Cc1c(OCCCN2CCC(F)CC2)cccc1-c1cccc2c1CC[C@@H]2Oc1cc(OCc2cncc(C#N)c2)c(CN[C@H](C(=O)O)[C@@H](C)O)cc1Cl`, the IC50 is < 5 nM.

As to `N#Cc1cncc(COc2cc(O[C@H]3CCc4c(-c5cccc(OCCCN6CCC(O)CC6)c5Cl)cccc43)c(Cl)cc2CN[C@@H](CO)C(=O)O)c1`, the half-inhibitory concentration (IC50) is < 5 nM.

For `CN1CCC(COc2cccc(-c3cccc4c3CC[C@@H]4Oc3cc(OCc4cncc(C#N)c4)c(CNC[C@@H]4CCC(=O)N4)cc3Cl)c2Cl)C1` (stereo partly drawn), the IC50 was < 5 nM.

For `CCOc1cc(O[C@H]2CCc3c(-c4cccc(OCCCN5CCC(O)CC5)c4C)cccc32)c(Cl)cc1CN[C@H](C(=O)O)[C@@H](C)O`, the IC50 is < 5 nM.

`N#Cc1cncc(COc2cc(O[C@H]3CCc4c(-c5cccc(OCCCN6CCC(F)CC6)c5Cl)cccc43)c(Cl)cc2CN[C@@H]2CCC[C@H]2O)c1`: the IC50 was < 5 nM.

For the compound `Cc1c(OCCCN2C(C)CC2C)cccc1-c1cccc2c1CC[C@@H]2Oc1cc(OCc2cc(C#N)cc(C#N)c2)c(CN[C@H]2CCC(=O)NC2)cc1Cl` (stereo partly drawn), the IC50 is < 5 nM.

`Cc1c(OCCCN2CCC(C)(F)CC2)cccc1-c1cccc2c1CC[C@@H]2Oc1cc(OCc2cc(C#N)cc(C#N)c2)c(CN[C@@H]2CCC[C@H]2O)cc1Cl` gave an IC50 of 5 to 500 nM.

In the case of `Cc1c(OCCCN2CCC(O)CC2)cccc1-c1cccc2c1CC[C@@H]2Oc1cc(OCc2cncc(C#N)c2)c(CN2CCC(O)CC2)cc1Cl`, the IC50 was < 5 nM.
